Test results taken from patent US20230365592A1 (Agios Pharmaceuticals, Inc., priority 2022, published 2023).

Molecular target: T1, human PAH with the R408W mutation (Homo sapiens, UniProt P00439, R408W)
T1 construct: expressed in transfected cells
T1 sequence (P00439 1-452 R408W): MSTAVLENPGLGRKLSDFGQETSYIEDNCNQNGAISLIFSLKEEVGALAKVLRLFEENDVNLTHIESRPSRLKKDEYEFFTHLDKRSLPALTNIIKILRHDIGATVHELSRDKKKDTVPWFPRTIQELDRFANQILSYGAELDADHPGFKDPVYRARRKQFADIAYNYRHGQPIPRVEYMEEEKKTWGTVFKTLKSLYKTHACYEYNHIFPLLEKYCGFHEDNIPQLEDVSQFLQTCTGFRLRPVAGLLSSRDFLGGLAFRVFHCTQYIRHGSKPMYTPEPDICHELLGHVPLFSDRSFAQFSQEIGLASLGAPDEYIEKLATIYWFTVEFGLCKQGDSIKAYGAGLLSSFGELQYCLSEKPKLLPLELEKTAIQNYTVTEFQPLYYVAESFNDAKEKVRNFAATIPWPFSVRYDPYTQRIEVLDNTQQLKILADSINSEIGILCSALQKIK
Assay: Cell Based Phenylalanine Flux Assay;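 also: after compound treatment, cells received sepiapterin plus isotope-labelled Phenylalanine for 4 hours, then labelled Tyrosine in the medium was quantified, 10-point 2-fold dilution series run in duplicate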
Conditions: A375 cells expressing R408W PAH; 24 hrs with compound, then 20 µM sepiapterin and 800 µM 13C9,15N-Phenylalanine for 4 hours; 13C-Tyrosine by LC-MS; average where tested multiple times; read-out: AC50

| SMILES | AC50 [nM] |
| --- | --- |
| O=C(c1oc(-c2ccccn2)nc1C1CC1)N1CCCc2[nH]cnc2[C@H]1c1cc2ccccn2n1 (single isomer, unassigned) | 1000 to 5000 |
| Nc1cnc(N2CCc3[nH]cnc3C2c2cc3cccc(Cl)n3n2)nc1 (stereo not shown) | 1000 to 5000 |
| O=C(c1nnc(C2CC(F)(F)C2)o1)N1CCc2[nH]cnc2[C@@H]1c1cc2cccc(C(F)F)n2n1 (single isomer, unassigned) | > 5000 |
| O=C(c1cnn2cc(N3CCOCC3)ccc12)N1CCc2[nH]cnc2C1c1cc2cccc(C(F)(F)F)n2n1 (stereo not shown) | 1000 to 5000 |

Same assay, conditions: A375 cells expressing human PAH R408W; 24 hrs compound incubation; 13C-Tyrosine by LC-MS; average where tested multiple times; read-out: AC50

| AC50 [nM] | SMILES |
| --- | --- |
| < 500 | CC(C)c1cccn2nc([C@@H]3c4nc[nH]c4CCN3C(=O)c3nnc(-c4ccccn4)o3)cc12 [Example 1905, (S)-(4-(4-isopropylpyrazolo[1,5-a]pyridin-2-yl)-1,4,6,7-tetrahydro-5H-imidazo[4,5-c]pyridin-5-yl)(5-(pyridin-2-yl)-1,3,4-oxadiazol-2-yl)methanone] |
| > 5000 | CC(C)c1cccn2nc([C@H]3c4nc[nH]c4CCN3C(=O)c3nnc(-c4cnn(C)c4)o3)cc12 [Example 1887, (R)-(4-(4-isopropylpyrazolo[1,5-a]pyridin-2-yl)-1,4,6,7-tetrahydro-5H-imidazo[4,5-c]pyridin-5-yl)(5-(1-methyl-1H-pyrazol-4-yl)-1,3,4-oxadiazol-2-yl)methanone] |
| < 500 | Cc1cccnc1-c1nnc(N2CCc3[nH]cnc3[C@H]2c2cc3c(F)cccn3n2)o1 [Example 2280, (S)-2-(4-(4-fluoropyrazolo[1,5-a]pyridin-2-yl)-1,4,6,7-tetrahydro-5H-imidazo[4,5-c]pyridin-5-yl)-5-(3-methylpyridin-2-yl)-1,3,4-oxadiazole] |

The next lines start with the compound.

| SMILES | AC50 [nM] |
| --- | --- |
| Fc1cccc(-c2nnc(N3CCc4[nH]cnc4[C@H]3c3cc4c(C(F)(F)F)cccn4n3)o2)n1 [Example 2363, (S)-2-(6-fluoropyridin-2-yl)-5-(4-(4-(trifluoromethyl)pyrazolo[1,5-a]pyridin-2-yl)-1,4,6,7-tetrahydro-5H-imidazo[4,5-c]pyridin-5-yl)-1,3,4-oxadiazole] | 500 to 1000 |
| Fc1ccc(-c2nnc(N3CCc4[nH]cnc4[C@H]3c3cc4c(Cl)cccn4n3)o2)cc1 [Example 2009, (S)-2-(4-(4-chloropyrazolo[1,5-a]pyridin-2-yl)-1,4,6,7-tetrahydro-5H-imidazo[4,5-c]pyridin-5-yl)-5-(4-fluorophenyl)-1,3,4-oxadiazole] | < 500 |
| Cc1c[nH]nc1-c1nnc(C(=O)N2CCc3[nH]cnc3[C@@H]2c2cc3c(C)cccn3n2)o1 [Example 2293, (R)-(5-(4-methyl-1H-pyrazol-3-yl)-1,3,4-oxadiazol-2-yl)(4-(4-methylpyrazolo[1,5-a]pyridin-2-yl)-1,4,6,7-tetrahydro-5H-imidazo[4,5-c]pyridin-5-yl)methanone] | > 5000 |
| Fc1cccc(F)c1-c1nnc(N2CCc3[nH]cnc3[C@H]2c2cc3c(C(F)(F)F)cccn3n2)o1 [Example 1847, (S)-2-(2,6-difluorophenyl)-5-(4-(4-(trifluoromethyl)pyrazolo[1,5-a]pyridin-2-yl)-6,7-dihydro-1H-imidazo[4,5-c]pyridin-5(4H)-yl)-1,3,4-oxadiazole] | < 500 |

Same assay, conditions: A375 cells expressing human R408W PAH; 24 hrs compound incubation; 13C-Tyrosine by LC-MS; average where tested multiple times; read-out: AC50

| AC50 [nM] | SMILES |
| --- | --- |
| > 5000 | Cc1ncccc1-c1nnc(C(=O)N2CCc3[nH]cnc3[C@@H]2c2cc3c(C(F)F)cccn3n2)o1 [Example 1395, (R)-(4-(4-(difluoromethyl)pyrazolo[1,5-a]pyridin-2-yl)-6,7-dihydro-1H-imidazo[4,5-c]pyridin-5(4H)-yl)(5-(2-methylpyridin-3-yl)-1,3,4-oxadiazol-2-yl)methanone] |
| < 500 | Cc1cccn2nc([C@@H]3c4nc[nH]c4CCN3C(=O)c3ccnn3-c3ccccn3)cc12 [Example 862, (S)-(4-(4-methylpyrazolo[1,5-a]pyridin-2-yl)-6,7-dihydro-1H-imidazo[4,5-c]pyridin-5(4H)-yl)(1-(pyridin-2-yl)-1H-pyrazol-5-yl)methanone] |
| 500 to 1000 | Cc1nnc(C(=O)N2CCc3[nH]cnc3[C@H]2c2cc3c(C(F)(F)F)cccn3n2)o1 [Example 944, (S)-(5-methyl-1,3,4-oxadiazol-2-yl)(4-(4-(trifluoromethyl)pyrazolo[1,5-a]pyridin-2-yl)-6,7-dihydro-1H-imidazo[4,5-c]pyridin-5(4H)-yl)methanone] |
| 1000 to 5000 | Cc1cccn2nc([C@H]3c4nc[nH]c4CCN3C(=O)c3nnc(-c4cnn(C(F)(F)F)c4)o3)cc12 [Example 1473, (R)-(4-(4-methylpyrazolo[1,5-a]pyridin-2-yl)-6,7-dihydro-1H-imidazo[4,5-c]pyridin-5(4H)-yl)(5-(1-(trifluoromethyl)-1H-pyrazol-4-yl)-1,3,4-oxadiazol-2-yl)methanone] |
| < 500 | O=C(c1cnn2ccccc12)N1CCc2[nH]cnc2[C@H]1c1cc2c(F)cccn2n1 [Example 1289, (S)-(4-(4-fluoropyrazolo[1,5-a]pyridin-2-yl)-6,7-dihydro-1H-imidazo[4,5-c]pyridin-5(4H)-yl)(pyrazolo[1,5-a]pyridin-3-yl)methanone] |
| < 500 | COc1cccn2nc([C@@H]3c4nc[nH]c4CCN3C(=O)c3ccnn3-c3ccccn3)cc12 [Example 898, (S)-(4-(4-methoxypyrazolo[1,5-a]pyridin-2-yl)-6,7-dihydro-1H-imidazo[4,5-c]pyridin-5(4H)-yl)(1-(pyridin-2-yl)-1H-pyrazol-5-yl)methanone] |
| 500 to 1000 | COc1cccn2nc([C@@H]3c4nc[nH]c4CCN3C(=O)c3nnc(-c4ccccn4)o3)cc12 [Example 779, (S)-(4-(4-methoxypyrazolo[1,5-a]pyridin-2-yl)-6,7-dihydro-1H-imidazo[4,5-c]pyridin-5(4H)-yl)(5-(pyridin-2-yl)-1,3,4-oxadiazol-2-yl)methanone] |
| 1000 to 5000 | CC(C)(C)c1nnc(C(=O)N2CCc3[nH]cnc3[C@@H]2c2cc3c(F)cccn3n2)o1 [Example 1026, (R)-(5-(tert-butyl)-1,3,4-oxadiazol-2-yl)(4-(4-fluoropyrazolo[1,5-a]pyridin-2-yl)-6,7-dihydro-1H-imidazo[4,5-c]pyridin-5(4H)-yl)methanone] |

Continued, compound first:

| SMILES | AC50 [nM] |
| --- | --- |
| FC(F)(F)c1cnc(N2CCc3[nH]cnc3[C@H]2c2cc3c(C(F)(F)F)cccn3n2)nc1 [Example 1774, (S)-4-(4-(trifluoromethyl)pyrazolo[1,5-a]pyridin-2-yl)-5-(5-(trifluoromethyl)pyrimidin-2-yl)-4,5,6,7-tetrahydro-1H-imidazo[4,5-c]pyridine] | < 500 |
| Cc1cccn2nc([C@H]3c4nc[nH]c4CCN3C(=O)c3nnc(C4CCC4)o3)cc12 [Example 1557, (R)-(5-cyclobutyl-1,3,4-oxadiazol-2-yl)(4-(4-methylpyrazolo[1,5-a]pyridin-2-yl)-6,7-dihydro-1H-imidazo[4,5-c]pyridin-5(4H)-yl)methanone] | 1000 to 5000 |
| O=C(c1oc(C2(O)CC2)nc1C(F)F)N1CCc2[nH]cnc2[C@H]1c1cc2cccc(C(F)(F)F)n2n1 [Example 1268, (S)-(4-(difluoromethyl)-2-(1-hydroxycyclopropyl)oxazol-5-yl)(4-(7-(trifluoromethyl)pyrazolo[1,5-a]pyridin-2-yl)-6,7-dihydro-1H-imidazo[4,5-c]pyridin-5(4H)-yl)methanone] | < 500 |
| C[C@H](O)c1nc(C(F)F)c(C(=O)N2CCc3[nH]cnc3[C@H]2c2cc3ccccn3n2)o1 [Example 692, (4-(difluoromethyl)-2-((S)-1-hydroxyethyl)oxazol-5-yl)((S)-4-(pyrazolo[1,5-a]pyridin-2-yl)-6,7-dihydro-1H-imidazo[4,5-c]pyridin-5(4H)-yl)methanone] | < 500 |
| O=C(c1nnc(C2CC2)o1)N1CCc2[nH]cnc2[C@H]1c1cc2cccc(C(F)(F)F)n2n1 [Example 1140, (S)-(5-cyclopropyl-1,3,4-oxadiazol-2-yl)(4-(7-(trifluoromethyl)pyrazolo[1,5-a]pyridin-2-yl)-6,7-dihydro-1H-imidazo[4,5-c]pyridin-5(4H)-yl)methanone] | 500 to 1000 |
| Cc1ccc2cc([C@@H]3c4nc[nH]c4CCN3C(=O)c3nnc(C(C)(C)F)o3)nn2c1 [Example 1171, (S)-(5-(2-fluoropropan-2-yl)-1,3,4-oxadiazol-2-yl)(4-(6-methylpyrazolo[1,5-a]pyridin-2-yl)-6,7-dihydro-1H-imidazo[4,5-c]pyridin-5(4H)-yl)methanone] | 500 to 1000 |
| Cc1cccc2cc([C@@H]3c4nc[nH]c4CCN3c3nnc(-c4ccccn4)o3)nn12 [Example 1640, (S)-2-(4-(7-methylpyrazolo[1,5-a]pyridin-2-yl)-6,7-dihydro-1H-imidazo[4,5-c]pyridin-5(4H)-yl)-5-(pyridin-2-yl)-1,3,4-oxadiazole] | 500 to 1000 |
| O=C(c1nnc(-c2cnn(C(F)(F)F)c2)o1)N1CCc2[nH]cnc2[C@H]1c1cc2c(C(F)(F)F)cccn2n1 [Example 1538, (S)-(5-(1-(trifluoromethyl)-1H-pyrazol-4-yl)-1,3,4-oxadiazol-2-yl)(4-(4-(trifluoromethyl)pyrazolo[1,5-a]pyridin-2-yl)-6,7-dihydro-1H-imidazo[4,5-c]pyridin-5(4H)-yl)methanone] | 500 to 1000 |
| CC(C)(C)c1nnc(C(=O)N2CCc3[nH]cnc3[C@@H]2c2cc3c(Cl)cccn3n2)o1 [Example 1046, (R)-(5-(tert-butyl)-1,3,4-oxadiazol-2-yl)(4-(4-chloropyrazolo[1,5-a]pyridin-2-yl)-6,7-dihydro-1H-imidazo[4,5-c]pyridin-5(4H)-yl)methanone] | > 5000 |
